In patent US20240122934A1, “COMPOSITIONS AND METHODS OF TREATMENT FOR INHIBITING CAPILLARY TUBE REGRESSION” (University of South Florida, priority 2019, published 2024):
“Also recorded” adds a separate entry of the source.

Tests used:
[1] = system: EC tube networks; assay: 3D collagen EC tube regression assay; assay type: cell-based, human; details: for EC tube regression (pro-regressive activity): factor added to established 48 hr EC tube networks, 24 hr
Description: (A) EC cultures with tube networks were established for 48 hr followed by the addition of indicated cytokines or thrombin (Thr) for 24 hr. IL-1β and IL-la were added at 1 ng/ml, TNFα at 3.16 ng/ml and thrombin at 1 μg/ml. Bars equal 100 or 200 μm. (B,C,D) EC tube networks were treated with the indicated cytokines and varying concentrations in dose-response analyses and in the presence or absence of thrombin added at 1 μg/ml. After 24 hr, cultures were fixed, stained and quantitated for EC lumen area per field. These curves are from a representative experiment using triplicate wells for each condition. The values (±SD) are derived from analyzed fields (n=15) where total lumen and tube area was measured. Asterisks indicate significance at p<0.05 compared to control and squares indicate significance at p<0.05 compared to the cytokine treatments alone.
ECs (passages 3-6) and pericytes (passages 3-12) were cultured as previously described^49,50. THP-1 cells were cultured in RPMI-1640-20% FCS. THP-1-T macrophages were differentiated for 72 hr. with 50 ng/ml of phorbol ester in RPMI-20% FCS, and then treated for 48 hr. in RPMI-2% FCS prior to adding TLR ligands. THP-1-VT macrophages were induced to differentiate for 72 hr. with 10^-7 M vitamin D3 (Calcitriol) in RPMI-20% FCS, followed by 48 hr. with phorbol ester in RPMI-2% FCS prior to adding TLR ligands.
(§1) ECs or ECs with pericytes were suspended in 3D collagen matrices and incubated at 37° C. in serum-free defined media as described^9,50,51. Recombinant factors or THP-1 conditioned media were added at the indicated doses to existing 48 or 72 hr. cultures with EC only or EC-pericyte tube networks, respectively. After 24 or 48 hr. for EC only or EC-pericyte tubes, respectively, cultures were fixed in 3% glutaraldehyde or 3% paraformaldehyde. EC tube areas were traced and quantitated as described. In some cases, neutralizing antibodies were added (10 μg/ml). For signaling experiments, lysates were prepared from control vs. regressing 3D cultures at different time points.

[2] = system: EC sprouts and tubes; assay: angiogenic sprouting assay (ECs invading from monolayer surface); assay type: cell-based, human; details: angiogenic sprouting system
Description: (A) ECs were seeded onto a monolayer surface and then allowed to invade into the gels to form tubes over a 48 hr period. At this time, cultures were then treated with IL-1β or TNFα and in the absence or presence of FIST. Cultures were fixed after 24 hr, stained and photographed to visualize the monolayer surface and the underlying sprouts and tubes. (B) Cultures were established just like in A and then the Pak2 inhibitor, Frax486 (2.5 μM) or the microtubule depolymerizing agent, vinblastine (100 nM), were added to media in the presence or absence of FIST. Cultures were fixed after 24 hr, stained and photographed. Bar equals 200 μm.
Studies to define the factors and signals that promote endothelial cell (EC) lumen and tube formation, EC sprouting and EC-pericyte tube co-assembly have been performed under serum-free defined conditions so that the functional role of individual molecules that regulate these processes can be assessed. Disclosed herein, the factors that control capillary regression are defined. Capillary regression is a process that has been largely neglected despite the likelihood that it may present a fundamental pathogenic feature of major human diseases where capillary disassembly and regression are known to occur (i.e. hypertension, diabetes, ischemic disease in many tissues, neurodegenerative diseases, and malignant cancer). […] EC tube networks were allowed to form for 48 hr. (vasculogenesis type of assay) and then added these agents in dose-response experiments, showing that they potently induce EC tube regression (at low ng levels) (FIG. 1). Real-time movies were performed to visualize these pro-regressive activities. This experimental approach has utilized assays that mimic vasculogenesis or angiogenic sprouting and these factors induce regression equally well in both assay systems. […] These studies have been performed primarily in 3D collagen matrices, but the same result is also observed in 3D fibrin matrices.

[3] = system: EC-pericyte tube networks; assay: EC-pericyte co-culture regression assay; assay type: cell-based, human; details: added to 72 hr co-cultures
Description: (A) EC-pericyte (GFP-labeled) co-cultures were established and allowed to form for 72 hr and at this time, the combination of IL-1β (10 ng/ml), TNFα (10 ng/ml) and thrombin (11 μg/ml) were added in combination compared to control and real-time movies were performed. Light and fluorescent image overlays over time are shown in representative fields. Arrowheads indicate clusters of pericytes that accumulate together during regression responses in response to these three factors in combination. After 48 hr, fixed cultures were stained for CD31 to detect ECs and fluorescence image overlays were performed. (B) The same set up was established as in A, except that each individual factor and combination of factors were added. After 48 hr, the cultures were fixed and stained for CD31. Confocal images were obtained, and fluorescence overlay images are shown.
(A) EC-pericyte co-cultures were established for 72 hr, and then were left untreated or with IL-1β (10 ng/ml), TNFα (10 ng/ml), and thrombin (11 μg/ml) in combination. After 48 hr, cultures were fixed and stained with CD31, confocal microscopy and 3D reconstruction of the images allowed for an upright and side view. (B) EC-pericyte tube networks were treated with the indicated single and combined factors and after fixation, EC tube area was quantitated. […] The values (±SD) were obtained from analyzed fields (n=15) where total lumen and tube area was measured. Asterisks indicate increased significance at p<0.05 compared to control, the squares indicate decreased significance at p<0.05 relative to the single factor conditions and the triangle indicates significance at p<0.05 relative to the double factor conditions. (C) EC-pericyte tube networks were treated with indicated combinations of factors. After 48 hr, total GFP fluorescence per well was quantitated as a measure of pericyte number since they are GFP-labeled. […] Asterisks indicate significance at p<0.05 compared to control.
as §1

[4] = system: EC tube networks; assay: Western blots of lysates from regressing 3D EC cultures (regression signaling signature); assay type: cell-based, human; details: 24-hr. time course, compared to control EC tubes
Description: (A,B) ECs tube networks were treated with the indicated factors vs. control and at different time points, lysates were prepared from the 3D cultures. Western blots were performed using the different indicated antibodies. (C) Schematic illustrating findings that define a capillary regression signaling signature.
THP-T macrophages were treated with Pam3CSK4 (Pam) or LPS and conditioned medium was added at a 1:20 or 1:50 dilution, respectively, to EC tube networks. Control and IL10-treated cultures were compared with the conditioned medium treatments within the same experiment. At the indicated time points, lysates were obtained, and Western blots were performed with the indicated antibodies.
as §1

[5] = system: Lymphatic EC tube networks; assay: lymphatic EC tube network regression; assay type: cell-based; details: cytokines 10 ng/ml, thrombin 1 μg/ml, 24 hr
Description: Lymphatic EC tube networks were established for 48 hr and at that time, the indicated pro-inflammatory mediators were added. IL-10 and TNFα were added at 10 ng/ml, while thrombin was added at 1 μg/ml. (A) After 24 hr, cultures were fixed, stained with toluidine blue and photographed. (B) The cultures in (A) were quantitated for EC tube area. Asterisks indicate significance at p<0.01 compared to control.

[6] = system: THP-1 macrophages; assay: TLR ligand activation of cells; conditioned medium tested on EC tube networks; assay type: cell-based, human
Description: (§2) (A,B) The TLR ligand Pam3CSK4 was added at 100 ng/ml to THP-1 macrophages that were differentiated in two separate ways (THP-1-VT vs. THP-1-T) or to ECs, fibroblasts (Fib), or pericytes (Peri). Conditioned medium was collected after 4 hr and was added at a 1:5 dilution to established EC tube networks vs. control Pam3CSK4 or control RPMI1640 media. Two independent conditioned media batches were obtained for both the THP-1-VT (i.e. VT1, VT2) and THP-1-T (i.e. T1, T2) macrophage cells. IL-la and IL-1β were added separately at 1 ng/ml. After 24 hr, cultures were fixed, stained, photographed (A) and quantitated for EC tube area (B). Bar equals 200 μm. […] The values (±SD) were obtained from analyzed fields (n=15) where total lumen and tube area was measured. Asterisks indicate significance at p<0.05 compared to control. (C) LPS was added at the indicated concentrations (ng/ml) in the presence or absence of recombinant LPS binding protein (LBP) at 1 μg/ml to EC tube networks. EC lumen areas were measured after 24 hr following these additions. (D) THP-T macrophages were treated with control or 100 ng/ml of Pam3CSK4 (Pam) or LPS. After 4 hr, total RNA was obtained, and RT-PCR analysis was performed evaluating the mRNA expression of indicated genes. […] From the real-time videos, EC lumen areas were measured over time (n=6). […]

[7] = system: THP-T macrophages; assay: RT-PCR of cytokine mRNA in TLR ligand-treated macrophages; assay type: cell-based, human; details: 100 ng/ml, 4 hr
Description: as §2

[8] = system: hyaloid vessels; assay: hyaloid vascular regression in mice; assay type: in vivo; details: intravitreal injection, vessel number quantitated at P8
Description: (A) Intravitreal injection of blocking antibodies directed to both IL-10 and TNFα vs control IgG was performed at postnatal day (P) 6, and hyaloid vessel number was quantitated at P8. (B) Intravitreal injection of IL-10 was performed at P5 vs vehicle control, and hyaloid vessel number was quantitated at P8. (C and D) Hyaloid vessels at P2 and P8 were immunostained for phospho-MLC2 (p-MLC; red) and CD31-positive endothelial cells (ECs; green), and double-positive cells were imaged and quantitated over time. Scale bar=100 μm. E and F, Analysis of ICAM-1 expression at the mRNA (E) and protein level (F) during different stages of hyaloid vessel regression. CD indicates cluster of differentiation; DAPI, 4′6-diamidino-2-phenylindole; ICAM, intercellular adhesion molecule; and MLC, myosin light chain.
In some embodiments, physiologic capillary regression can be modeled in a mouse by examining the postnatal regression of the eye hyaloid vasculature. In some embodiments, this vascular regressive response can depend on the presence of adjacent macrophages which decorate this developmental vascular bed. […] In some embodiments, EC capillary regression during hyaloid regression can include increased expression of ICAM-1 (at the mRNA and protein level) and increased presence of phospho-MLC2 in regressing hyaloid ECs.

## TNFα
[1]; 40 and 10 ng/ml, 48 hr EC tube networks
  EC tube regression in screen of growth factors and cytokines: more potent pro-regressive factors than the other factors described herein
[1]
  EC tube regression (pro-regressive activity): directly cause capillary tube collapse and regression
[2]
  degeneration of sprouts and EC monolayer: induce degeneration of the invading sprouts, but also the EC monolayer surface where the sprouts originated
[3]
  EC tube regression in EC-pericyte co-cultures: marked tube regression in response to each factor individually and, also in combination
  pericyte numbers: an increase in pericyte numbers
[4]
  ICAM-1 and VCAM-1 levels: Strong upregulation of ICAM-1 and VCAM-1
  phospho-Pak2, phospho-cofilin, acetylated tubulin, procaspase3 levels: decreased levels of phospho-Pak2, phospho-cofilin, acetylated tubulin and procaspase3
  phospho-p38, phospho-JNK, phospho-MLC2 levels: increased levels of phospho-p38, phospho-JNK, and phospho-MLC2
[5]
  lymphatic tube network regression: regress

## thrombin
[1]
  EC tube regression (pro-regressive activity): directly cause capillary tube collapse and regression; also recorded: less effective
[3]
  EC tube regression in EC-pericyte co-cultures: marked tube regression in response to each factor individually and, also in combination
  pericyte numbers: an increase in pericyte numbers
[5]
  lymphatic tube network regression: regress

## Pam3CSK4
[1]
  EC tube regression (pro-regressive activity): Neither Pam3CSK4 or LPS by themselves (with and without the presence of LPS-binding protein, LBP) had any ability to directly cause EC tube regression
[6]; ECs, pericytes and fibroblasts
  induction of pro-regressive activities in conditioned media of other cell types: failed to induce pro-regressive activities in their conditioned media
[6]; TLR ligand 100 ng/ml added to macrophages, medium collected after 4 hr
  induction of pro-regressive activities in macrophage conditioned medium: highly potent pro-regressive activities in the macrophage conditioned medium
[7]
  mRNA expression of inflammatory cytokines: marked upregulation of TNFα, IL-1β, IL-la, IL-6 and IL-10 (i.e. an anti-inflammatory cytokine) as well as tissue factor (i.e. F3)

B1: IL-10: anti-inflammatory cytokine (protein, UniProt P22301 19-178, looked up)
Interleukin-10: SPGQGTQSENSCTHFPGNLPNMLRDLRDAFSRVKTFFQMKDQLDNLLLKESLLEDFKGYLGCQALSEMIQFYLEEVMPQAENQDPDIKAHVNSLGENLKTLRLRLRRCHRFLPCENKSKAVEQVKNAFNKLQEKGIYKAMSEFDIFINYIEAYMTMKIRN
[8]
  hyaloid vessel regression: inhibited hyaloid regression
